Consider eight compounds from publication PMC3991622, “Immobilised Histidine Tagged β 2-Adrenoceptor Oriented by a Diazonium Salt Reaction and Its Application in Exploring Drug-Protein Interaction Using Ephedrine and Pseudoephedrine as Probes” (PLoS ONE, 2014).

In assay [1] the test system is β 2-AR. Particulars: on β 2-AR; response relative to isoproterenol; cited from earlier work.
The next assay concerns T1, Immobilized β 2-AR.
T1 construct: made in house; host or cells: E. coli BL21 (DE3)
Briefly: Specificity and stability of the oriented β 2-AR column (retention of control drugs). It is filed as binding, Sus scrofa. Particulars: 20 mM phosphate buffer (pH 7.4), 0.2 mL/min; for Retention times, Immobilized β 2-AR: 37 °C, void time 1.6 min. The protocol:
(§1) The column containing the oriented immobilised β 2-AR was prepared by packing the stationary phase into a stainless steel column (2.1 mm×5.0 cm) using the slurry method at a pressure of 4.0×10^7 Pa. Phosphate buffer (20 mM, pH 7.4) was used as the slurry solution. The control column containing exposed silica gel and attached histidine was prepared using the same synthesis method as that of the β 2-AR column.
(§2) The mobile phases were prepared by adding 0 to 40 µM of ephedrine hydrochloride as the competing agent to 20 mM phosphate buffer (pH 7.4). All of the mobile phases were filtrated with 0.45 µm Millipore HV filters and degassed by ultrasonication before HPAC analysis. Working solutions of ephedrine and pseudoephedrine were prepared by dissolving the drugs in phosphate buffer (20 mM, pH 7.4) to a concentration of 1.0 mM. The detection wavelength was 220 nm with an injection of 5.0 µL for each drug. The flow rate was 0.2 mL/min for all of the analyses. […] The capacity factor (k') was calculated by detecting the retention time in triplicate for each injected sample using the equation k' = (tR−t0)/t0. When the injection solute was pseudoephedrine, Eq. (1) was used to plot the curve of 1/(k'-X) and [A], whereas Eq. (2) was used to achieve the plot between [drawing 5] and [A] when ephedrine was used as the analyte.
The specificity of the oriented β 2-AR column was tested by determining the retention times of specific drugs on the receptor.

The target in assay [2] is T2, β 2-AR (Sus scrofa, UniProt Q28997).
T2 construct: made in house; host or cells: E. coli BL21 (DE3)
Briefly: Zonal elution on oriented immobilised β 2-AR column (HPAC). Type of assay: binding. Particulars: for concentration of the binding site / capacity factor k′ / association constant / association constant KA: 37 °C; for types of binding site on β 2-AR: linear zonal elution plot. The method, then: The binding of ephedrine and pseudoephedrine to the oriented immobilised β 2-AR was determined by zonal elution. The theory assumes that a known concentration of a competing agent (I) continuously passes through a column containing an immobilised ligand (L) while the injecting volume of an analyte (A) is small enough to be neglected compared with the concentration of I in the mobile phase. Assuming I and A have direct competition at a single binding site on L and the interactions have association/dissociation kinetics, Eq. (1) can be used to calculate the binding of A and I to L [24], [25]. [drawing 1] (1) where X is the capacity factor for A due to the existence of a second type of binding site on the column, and k' is the overall capacity factors of A ascribed to all the types of sites. In this case, the equation assumes the capacity factors of A produced by the individual sites are additive, and an independent estimate of the capacity factors due to the second type of site can be obtained, allowing for the capacity factor attributed to the first type of site 1 (Site 1) to be measured by k 1' = k'-X.
When the column is equilibrated with an eluent at concentration [A] and [I] equal to zero, and the retention of compound A is injected as a perturbation, Eq. (2) is used to determine the binding of A to L: [drawing 2] (2)
Assuming a single type of binding site, a linear expression can be obtained by plotting 1/sqrt (k') as a function of [A] to determine mL and K A. For two types of binding sites, a second term is added to the k' expressions.
as §1, §2

Assay [3] concerns the target T2, β 2-AR. Briefly: Thermodynamic study (zonal elution at 10-45 °C, van't Hoff equation) on oriented immobilised β 2-AR. Type of assay: binding. Particulars: for decrease of association constant / decrease of capacity factor / increase of binding sites: 10 °C to 45 °C; for capacity factor on the β 2-AR column: concentration 4.0 µM; for Kd: Association constant; for main force of the binding: semi-empirical rules of Ross et al.; for ΔS^θ: van't Hoff plot, 10-45 °C. The source says:
The thermodynamic interaction between β 2-AR and ephedrine plus pseudoephedrine was described by the van't Hoff equation, listed as Eq. (3) and (4). [drawing 3] (3) [drawing 4] (4)
In these equations, R is the ideal gas constant (8.31 J/mol/K), and T is the temperature in Kelvin. According to the semi-empirical rules summarised by Ross et al., when ΔG^θ<0, ΔH^θ>0 and ΔS^θ>0, hydrophobic interaction is the main interaction force during the binding process of a drug to protein. […] If ΔG^θ<0, ΔH^θ<0 and ΔS^θ<0, Van der Waals forces or hydrogen bonds are the major forces of the binding.
The thermodynamic investigation of ephedrine and pseudoephedrine on oriented immobilised β 2-AR was performed at 10, 20, 30, 37 and 45 °C. Eq. (3) and (4) were used to calculate the free energy, enthalpy and entropy during the binding of the two drugs to the receptor. The semi-empirical rules by Ross et al. were utilised to reveal the binding mechanism process of the two drugs to β 2-AR.

The subject of the next assay is papillary muscle. Further details: method as in PMID 3004791. Particulars: positive inotropic effect on the papillary muscle; cited from earlier work.
In the next assay the target is wild-type β 2-AR. Also noted: method as in PMID 8095262. To be noted: read-out: dissociation constant; cited from earlier work.
A further assay deals with β2-ARGsαS. Further details: method as in PMID 9478963. To be noted: read-out: dissociation constant; cited from earlier work.
The mark [4] stands for this setting: 12 µM ephedrine in mobile phase.
The mark [5] stands for this setting: 24 µM ephedrine in mobile phase.
Where [6] appears, read: 30 µM ephedrine in mobile phase.

T2 sequence (Q28997 whole entry): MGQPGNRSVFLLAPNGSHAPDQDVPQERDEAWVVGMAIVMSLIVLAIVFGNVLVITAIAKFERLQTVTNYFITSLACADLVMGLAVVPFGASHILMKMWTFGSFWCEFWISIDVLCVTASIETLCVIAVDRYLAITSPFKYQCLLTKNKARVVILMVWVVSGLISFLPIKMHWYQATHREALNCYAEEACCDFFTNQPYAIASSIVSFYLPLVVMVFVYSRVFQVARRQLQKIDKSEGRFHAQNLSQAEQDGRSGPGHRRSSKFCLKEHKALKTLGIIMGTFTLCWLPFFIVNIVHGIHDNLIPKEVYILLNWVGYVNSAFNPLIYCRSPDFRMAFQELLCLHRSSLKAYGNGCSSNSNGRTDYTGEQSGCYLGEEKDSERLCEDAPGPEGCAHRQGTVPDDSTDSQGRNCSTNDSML

What is called EC50 is the midpoint of the concentration-response curve. As for `CN[C@H](C)[C@@H](O)c1ccccc1` [1S,2R-ephedrine], in the assay with β 2-AR [1], the EC50 was 72 µM.
On to `CN(C)C(=O)Oc1cc(OC(=O)N(C)C)cc(C(O)CNC(C)(C)C)c1` (centres unmarked) [bambuterol], for which, in the assay on Immobilized β 2-AR, the “peak retained or non-retained on β 2-AR column” value (“peak retained or non-retained” below) is reported as “Retained” and the “Retention times, Immobilized β 2-AR” value is listed as 49.1 min.
Turning to `CC(C)NCC(O)c1ccccc1Cl` (centres unmarked) [clorprenaline], in the assay with Immobilized β 2-AR, the “peak retained or non-retained” value was “Retained”. In addition, the “Retention times, Immobilized β 2-AR” value in the assay on Immobilized β 2-AR was 9.9 min; with Immobilized β 2-AR (listed as Clorprenaline), 12.5 min.
On to `CN[C@@H](C)[C@H](O)c1ccccc1` [ephedrine, 1R,2S-ephedrine], for which the Kd at β 2-AR [2] was 168 µM; at β 2-AR [3] (283.15 K) it was 139 µM; on β 2-AR [3] (293.15 K), 149 µM; on β 2-AR [3] (303.15 K) it was 161 µM; on β 2-AR [3] (310.15 K), 168 µM; at β 2-AR [3] (318.15 K) it was 193 µM. In addition, the Kd on wild-type β 2-AR was 8 µM; at β2-ARGsαS, 5.1 ± 1.3 µM. In addition, the “concentration of the binding site” value on β 2-AR [2] was “(8.92±0.06) ×10^−4 M”. Also, the “capacity factor k′” value on β 2-AR [2] (4 µM ephedrine in mobile phase) was determined as 5.01±0.02; at β 2-AR [2] (8 µM ephedrine in mobile phase), 4.84±0.02; at β 2-AR [2] (setting [4]), 4.58±0.03; on β 2-AR [2] (20 µM ephedrine in mobile phase) it was 4.31±0.01; at β 2-AR [2] (setting [5]) it was 4.08±0.01; on β 2-AR [2] (setting [6]), 3.80±0.01. The “capacity factor k′” value on β 2-AR [2] (34 µM ephedrine in mobile phase) amounted to 3.64±0.01. Further, the association constant result at β 2-AR [2] (direct competitive study, pseudoephedrine injected, ephedrine as mobile phase additive) is reported as “(5.98±0.24)×10^3 /M”; on β 2-AR [2] (self-competitive study, ephedrine as analyte and competing agent) it was “(5.94±0.05)×10^3 /M”. The “association constant KA” value was “KA ephedrine = (5.94±0.05)×10^3 M^−1” at β 2-AR [2] (injection analyte ephedrine (self-competitive)); “(5.94±0.05)×10^3 M^−1” at β 2-AR [2] (injection analyte ephedrine (self-competitive), listed as 1R,2S-ephedrine); “KA ephedrine = (5.98±0.24)×10^3 M^−1” on β 2-AR [2] (injection analyte pseudoephedrine (direct competitive, ephedrine in mobile phase)). In addition, the “types of binding site on β 2-AR” value at β 2-AR [2] is given as “Only one type of binding site”. For the same compound, the values for the binding sites at β 2-AR [3] (10 °C) and at β 2-AR [3] (45 °C) were 807 µM and 948 µM, respectively. Also, the “decrease of association constant” value at β 2-AR [3] is 1.4 fold. In addition, the “decrease of capacity factor” value on β 2-AR [3] came to 1.2 fold. Moreover, the “increase of binding sites” value on β 2-AR [3] amounted to 1.2 fold. Moreover, the entries for the “capacity factor on the β 2-AR column” value at β 2-AR [3] (10 °C) and at β 2-AR [3] (45 °C) were 5.40 and 4.63, respectively. In addition, the “contribution of ΔH^θ to ΔG^θ” value at β 2-AR [3] (37 °C) was determined as 29.15%. Further, the “contribution of ΔS^θ to ΔG^θ” value at β 2-AR [3] (37 °C) is recorded as 70.85%. Also, the “main force of the binding” value at β 2-AR [3] is listed as “Electrostatic interaction”. Further, the “ΔS^θ” value on β 2-AR [3] came to 50.94±0.31 J/mol·K. Besides, the pD2 result in the assay with papillary muscle is reported as “about 5.95”.
`COC(=O)CCc1ccc(OCC(O)CNC(C)C)cc1` (centres unmarked) [esmolol]: in the assay on Immobilized β 2-AR, the “peak retained or non-retained” value was “Non-retained” and the “Retention times, Immobilized β 2-AR” value was 1.6 min.
For the compound `CN[C@@H](C)[C@@H](O)c1ccccc1` [pseudoephedrine, 1S,2S-pseudoephedrine], the “concentration of the binding site” value on β 2-AR [2] is reported as “(8.92±0.06) ×10^−4 M”. Moreover, the “capacity factor k′” value on β 2-AR [2] (2 µM ephedrine in mobile phase) was 5.87±0.01; at β 2-AR [2] (4 µM ephedrine in mobile phase) it was 5.81±0.01; on β 2-AR [2] (8 µM ephedrine in mobile phase) it was 5.73±0.01; at β 2-AR [2] (setting [4]), 5.66±0.01; at β 2-AR [2] (16 µM ephedrine in mobile phase), 5.54±0.03; on β 2-AR [2] (setting [5]), 5.47±0.03. Moreover, the “capacity factor k′” value at β 2-AR [2] (setting [6]) is recorded as 5.38±0.01. On β 2-AR [2], the “types of binding site on β 2-AR” value is given as “Only one type of binding site”. For the same compound, the binding sites on β 2-AR [3] (10 °C) came to 807 µM; at β 2-AR [3] (45 °C), 948 µM. In addition, the “decrease of association constant” value at β 2-AR [3] worked out at 1.5 fold. In addition, the “decrease of capacity factor” value on β 2-AR [3] is reported as 1.2 fold. Besides, the “increase of binding sites” value on β 2-AR [3] worked out at 1.2 fold. Besides, the “capacity factor on the β 2-AR column” value on β 2-AR [3] (10 °C) amounted to 6.36; on β 2-AR [3] (45 °C), 5.60. The Kd was 202 µM on β 2-AR [3] (283.15 K); 239 µM at β 2-AR [3] (293.15 K); 249 µM on β 2-AR [3] (303.15 K); 263 µM at β 2-AR [3] (310.15 K); 299 µM at β 2-AR [3] (318.15 K). The “main force of the binding” value on β 2-AR [3] is “electrostatic forces”. Further, the “ΔS^θ” value on β 2-AR [3] stood at 44.13±0.01 J/mol·K. Also, in the assay on β 2-AR [1], the EC50 is 309 µM.
On to `COc1cc2nc(N3CCN(C(=O)C4CCCO4)CC3)nc(N)c2cc1OC` (centres unmarked) [terazosin], for which, in the assay on Immobilized β 2-AR, the “peak retained or non-retained” value is listed as “Non-retained” and the “Retention times, Immobilized β 2-AR” value is recorded as 1.6 min.
For the compound `CC(C)(C)NCC(O)c1ccccc1Cl` (centres unmarked) [tobuterol], in the assay with Immobilized β 2-AR, the “peak retained or non-retained” value was “Retained” and the “Retention times, Immobilized β 2-AR” value is listed as 12.5 min. Also, the “Retention times, Immobilized β 2-AR” value in the assay on Immobilized β 2-AR (listed as Tobuterol) is listed as 9.9 min.
